According to patent publication US8993000B2, “Method for inducing differentiation of dental pulp cells into odontoblasts” (National University Corporation Okayama University, priority 2009, dated 2015):

B1: R-Spondin2: protein capable of directly activating a Wnt signaling pathway (R&D Systems, catalog No. 3266-RS/CF) (protein, UniProt Q6UXX9 22-243, looked up)
R-spondin-2: QGNRWRRSKRASYVSNPICKGCLSCSKDNGCSRCQQKLFFFLRREGMRQYGECLHSCPSGYYGHRAPDMNRCARCRIENCDSCFSKDFCTKCKVGFYLHRGRCFDECPDGFAPLEETMECVEGCEVGHWSEWGTCSRNNRTCGFKWGLETRTRQIVKKPVKDTILCPTIAESRRCKMTMRHCPGGKRTPKAKEKRNKKKKRKLIERAQEQHSVFLATDRANQ
B2: Norrin: protein capable of directly activating a Wnt signaling pathway (R&D Systems, catalog No. 3014-NR) (protein, UniProt Q00604 25-133, looked up)
Norrin: KTDSSFIMDSDPRRCMRHHYVDSISHPLYKCSSKMVLLARCEGHCSQASRSEPLVSFSTVLKQPFRSSCHCCRPQTSKLKALRLRCSGGMRLTATYRYILSCHCEECNS

System: MEDP cells as a pulp-derived cell line
Test: Dspp expression by PCR in cultured MEDP pulp-derived cells (induction of differentiation into odontoblasts)
Assay type: cell-based
Conditions: for expression of Dspp (relative ratio of DSPP to GADPH amplification product): fibronectin-coated vessel; for expression of Dspp in a pulp-derived cell line: same technique as Example 1, addition concentration to be considered
Protocol: In this example, MEDP cells as a pulp-derived cell line were cultured in a system including NaClO3, and the expression of Dspp in the cultured cells was confirmed. The expression of Dspp was confirmed by PCR.
The MEDP cells were cultured using a DMEM medium containing 10% v/v fetal bovine serum (FBS). The cells were suspended in the medium so that the number of the cells was 3.7×10^5 cells/ml, and 5 ml of the cell suspension were added to a culture vessel having a diameter of 6 cm and cultured. The culture was carried out using a culture vessel coated with fibronectin (FN) at 37±0.5° C. On day 1 of the culture, […] was added so that the final concentration was 50 mM or 100 mM, and the cells were cultured for an additional 7 days.
After mRNA had been extracted from the cultured cells using an RNeasy Mini Kit™ (manufactured by QIAGEN), reverse transcription was carried out using a PrimeScript™ Reverse Transcriptase (manufactured by TAKARA) to prepare cDNA, which was used as a sample for PCR. The extraction of mRNA and the preparation of cDNA were carried out in accordance with the manufacturer's instructions. Primers formed of base sequences set forth in SEQ ID NOS: 1 and 2 of the sequence listing were used as primers for amplification of DSPP, and primers formed of base sequences set forth in SEQ ID NOS: 3 and 4 of the sequence listing were used as primers for amplification of GADPH as a control gene. The PCR was carried out using a LightCycler™ (manufactured by Roche). The expression amount of DSPP was confirmed with a relative ratio between an amplification product of DSPP and an amplification product of GADPH.
A treatment for inducing differentiation was carried out by the same technique as that of Example 1 except that LiCl was used in place of NaClO3 and LiCl was added so that the final concentration was 5 mM or 50 mM on day 1 of the culture. Then, the expression of Dspp was confirmed.
A treatment for inducing differentiation was carried out by the same technique as that of Example 1 except that NaClO4 was used in place of NaClO3. Then, the expression of Dspp was confirmed.
A treatment for inducing differentiation is carried out by the same technique as that of Example 1 except that Norrin (R&D Systems, Inc.: catalog No.: 3014-NR) is used in place of NaClO3. Then, the expression of Dspp is confirmed. The addition concentration of Norrin is to be considered.
A treatment for inducing differentiation is carried out by the same technique as that of Example 1 except that R-Spondin2 (R&D Systems, Inc.: catalog No.: 3266-RS/CF) is used in place of NaClO3. Then, the expression of Dspp is confirmed. The addition concentration of R-Spondin2 is to be considered.

[1] = 50 mM or 100 mM added on day 1, cultured additional 7 days

Molecule	expression of Dspp (relative ratio of DSPP to GADPH amplification product) [1]	expression of Dspp in a pulp-derived cell line	other results
[Cl-].[Li+] [LiCl, lithium chloride]	–	–	expression of Dspp (relative ratio of DSPP to GADPH amplification product) (5 mM or 50 mM added on day 1, cultured additional 7 days): significantly enhanced
[Na+].[O-][Cl+2]([O-])[O-] [NaClO3, sodium chlorate]	significantly enhanced	–	–
[O-][Cl+3]([O-])([O-])O [sodium perchlorate]	significantly enhanced	–	–
B1	–	significantly enhances	–
B2	–	significantly enhances	–
